As usually defined, the EC50 is the concentration needed to bring the measured effect to its halfway point.

The record followed here is patent US20250221966A1, “RXFP1 AGONISTS” (BRISTOL-MYERS SQUIBB COMPANY, priority 2021, published 2025).

Each structure is given as a SMILES string.

For the assay, the target named is T1, human RXFP1 (Homo sapiens, UniProt Q9HBX9).
T1 construct: expressed in transfected cells
T1 sequence (Q9HBX9 1-757): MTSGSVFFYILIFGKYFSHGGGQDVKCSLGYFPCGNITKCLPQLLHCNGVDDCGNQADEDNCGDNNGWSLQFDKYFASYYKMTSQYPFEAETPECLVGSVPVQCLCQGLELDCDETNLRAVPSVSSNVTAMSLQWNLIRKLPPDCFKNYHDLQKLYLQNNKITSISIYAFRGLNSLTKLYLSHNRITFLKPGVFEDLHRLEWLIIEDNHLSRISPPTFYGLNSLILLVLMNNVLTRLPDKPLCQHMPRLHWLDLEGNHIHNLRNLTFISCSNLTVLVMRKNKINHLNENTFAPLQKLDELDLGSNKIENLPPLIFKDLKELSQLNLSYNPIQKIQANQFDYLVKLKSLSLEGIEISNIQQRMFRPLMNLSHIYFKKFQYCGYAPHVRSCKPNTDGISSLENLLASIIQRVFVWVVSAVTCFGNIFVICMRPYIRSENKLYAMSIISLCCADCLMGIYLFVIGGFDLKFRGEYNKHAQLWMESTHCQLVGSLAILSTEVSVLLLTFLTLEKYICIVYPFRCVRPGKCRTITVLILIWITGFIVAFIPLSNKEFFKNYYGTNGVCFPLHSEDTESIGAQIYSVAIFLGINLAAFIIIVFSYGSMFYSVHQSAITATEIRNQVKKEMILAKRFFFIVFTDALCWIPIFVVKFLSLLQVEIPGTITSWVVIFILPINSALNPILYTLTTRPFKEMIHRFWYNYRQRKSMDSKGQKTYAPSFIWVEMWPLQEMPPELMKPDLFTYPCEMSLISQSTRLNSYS
In words: RXFP1 cAMP assay (hRXFP1 HEK293 cAMP assay, HTRF). The assay is classed as cell-based. The conditions noted are these: HEK293 cells stably expressing human RXFP1, 30 min at room temperature, read-out: cAMP hRXFP1 HEK293 Assay EC50. Put shortly: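 hRXFP1-HEK293 stable line; HBSS + Ca/Mg, 20 mM HEPES, 0.05% BSA, 0.5 mM IBMX; cpd 0.010 nM–50 μM, 2% DMSO; 30 min RT; lysis, HTRF cAMP detection; 4-PL fit.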
On the technique in general: Cyclic AMP is a second messenger, typically raised through Gs and lowered through Gi signalling.
Take `COc1c(F)cc(-c2cnc3n2CC(O)CC3)cc1C(=O)N[C@H]1[C@@H](C(=O)Nc2ccc(F)c(C(F)(F)F)c2)[C@H]2CC[C@@H]1/C2=C\C1CC1` (stereo partly shown) [compound 753]: the 50% effective concentration (EC50) worked out at 3.3 nM.

With `COc1ccc(-c2cc(C3=NOC(C(=O)O)C3)ccc2F)cc1C(=O)N[C@H]1[C@@H](C(=O)Nc2ccc(F)c(C(F)(F)F)c2)[C@H]2CC[C@@H]1/C2=C\C1CC1` (stereo partly shown) [compound 948], the concentration giving a half-maximal response (EC50) worked out at 8.6 nM.

For `COC(=O)C(NC(C)=O)c1ccc(F)c(-c2ccc(OC)c(C(=O)N[C@@H]3C4CCC(/C4=C/C4CC4)[C@@H]3C(=O)Nc3ccc(F)c(C(F)(F)F)c3)c2)c1` (stereo partly shown) [Example 171], the EC50 stood at 5 nM.

Regarding `COc1ccc(-c2cc([C@H](OC(=O)NC3CC3)C(F)(F)F)ccc2F)cc1C(=O)N[C@H]1[C@@H](C(=O)Nc2ccc(F)c(C(F)(F)F)c2)[C@H]2CC[C@@H]1/C2=C\CC(C)C` [compound 929], the EC50 is 1.6 nM.

With `COc1ccc(C2=NOC3COCC23)cc1C(=O)N[C@H]1[C@@H](C(=O)NC(C)(C)C(C)(C)C)[C@H]2CC[C@@H]1/C2=C\C1CC1` (stereo partly shown) [compound 508], the concentration giving a half-maximal response (EC50) is 13 nM.

As to `COc1ccc(C2=NOC(C)(C(=O)O)C2)cc1C(=O)N[C@@H]1C2CCC(/C2=C/C2CC2)[C@@H]1C(=O)Nc1ccc(F)c(C(F)(F)F)c1` (stereo partly shown) [compound 422], the EC50 was 55 nM.

Regarding `COc1ccc(F)cc1C(=O)N[C@@H]1C2CCC(C2=C(C)C)[C@@H]1C(=O)Nc1ccc(F)c(C(F)(F)F)c1` (stereo partly shown) [compound 111], the EC50 was 860 nM.

For `COc1ccc(C2=NOC(CCO)C2)cc1C(=O)N[C@@H]1C2CCC(/C2=C/C2CC2)[C@@H]1C(=O)Nc1ccc(F)c(C(F)(F)F)c1` (stereo partly shown) [compound 398], the EC50 was 37 nM.

Turning to `COc1ccc(-c2cc(OC(F)(F)F)ccc2F)cc1C(=O)N[C@@H]1C2CCC(/C2=C/C2CC2)[C@@H]1C(=O)Nc1ccc(F)c(C(F)(F)F)c1` (stereo partly shown) [compound 285], the EC50 was 7 nM.

Turning to `COc1ccc(C2=NOC3CC(CO)CC23)cc1C(=O)N[C@H]1[C@@H](C(=O)NC2CCCC2)[C@H]2CC[C@@H]1/C2=C\C1CC1` (stereo partly shown) [compound 493], the EC50 was found to be 9.5 nM.

For `COc1ccc(-c2cccc3c2CN(C(=O)N(C)c2ccccc2)C3)cc1C(=O)N[C@H]1[C@@H](C(=O)Nc2ccc(F)c(C(F)(F)F)c2)[C@H]2CC[C@@H]1/C2=C\C1CC1` [compound 886], the EC50 stood at 2.7 nM.

Regarding `CCC=C1C2CCC1[C@H](C(=O)Nc1ccc(F)c(C(F)(F)F)c1)[C@@H]2NC(=O)c1cc(F)c(F)cc1OC` (stereo partly shown) [compound 47], the EC50 turned out to be 47 nM.

As for `COc1ccc(-c2ccc(C(CC(=O)O)C(F)(F)F)cc2F)cc1C(=O)N[C@H]1[C@@H](C(=O)Nc2ccc(F)c(C(F)(F)F)c2)[C@H]2CC[C@@H]1/C2=C\C1CC1` (stereo partly shown) [compound 883], the EC50 was determined as 2.5 nM.

Consider `COc1ccc(-c2cnn3c2CC(O)CC3)cc1C(=O)N[C@H]1[C@@H](C(=O)N[C@@H](C)C2(C)CC2)[C@H]2CC[C@@H]1/C2=C\C1CC1` (stereo partly shown) [compound 871], for which the concentration giving a half-maximal response (EC50) is 4.8 nM.

`COc1ccc(C2=NOC3CC(NC(=O)CO)CC23)cc1C(=O)N[C@@H]1C2CCC(/C2=C/C2CC2)[C@@H]1C(=O)Nc1ccc(F)c(C(F)(F)F)c1` (stereo partly shown) [compound 743]: the EC50 was 5 nM.

As to `COc1cc(F)c(F)cc1C(=O)N[C@@H]1C2CCC(/C2=C/c2ccncc2)[C@@H]1C(=O)Nc1ccc(F)c(C(F)(F)F)c1` (stereo partly shown) [compound 16], the EC50 is 770 nM.

For the molecule `COc1ccc([C@H]2CO[C@@H]3[C@H]2OC[C@@H]3O)cc1C(=O)N[C@H]1[C@@H](C(=O)Nc2ccc(F)c(C(F)(F)F)c2)[C@H]2CC[C@@H]1/C2=C\C1CC1` [compound 560], the EC50 was found to be 45.3 nM.

For `COc1ccc(-c2cc([C@@H](NC(=O)C3CCOCC3)C(F)(F)F)ccc2F)cc1C(=O)N[C@H]1[C@@H](C(=O)Nc2ccc(F)c(C(F)(F)F)c2)[C@H]2CC[C@@H]1/C2=C\C1CCCC1` [compound 956], the EC50 worked out at 6.1 nM.

Turning to `COc1ccc(-c2cc(C3=NOC4COCC34)ccc2F)cc1C(=O)N[C@H]1[C@@H](C(=O)Nc2ccc(F)c(C(F)(F)F)c2)[C@H]2CC[C@@H]1/C2=C\C1CC1` (stereo partly shown) [compound 910], the EC50 was 3.4 nM.

In the case of `COc1ccc(-c2cc([C@H](OC(=O)NC3CCC3)C(F)(F)F)ccc2F)cc1C(=O)N[C@@H]1C2CCC(/C2=C/CC(C)C)[C@@H]1C(=O)Nc1ccc(F)c(C(F)(F)F)c1` (stereo partly shown) [compound 926], the 50% effective concentration (EC50) worked out at 2.8 nM.

On to `COc1cc(F)c(F)cc1C(=O)N[C@@H]1C2CCC(/C2=C/c2cccc(C(F)(F)F)c2)[C@@H]1C(=O)Nc1ccc(F)c(C(F)(F)F)c1` (stereo partly shown) [compound 25], for which the EC50 is 200 nM.

On to `COc1ccc(C2=NOC3C(O)CCC23)cc1C(=O)N[C@H]1[C@@H](C(=O)Nc2ccc(F)c(C(F)(F)F)c2)[C@H]2CC[C@@H]1/C2=C\C1CC1` (single isomer, unassigned) [compound 706], for which the concentration giving a half-maximal response (EC50) amounted to 1300 nM.

As for `COc1ccc(-c2cc(C(OC(=O)NC3CC4(CC4)C3)C(F)(F)F)ccc2F)cc1C(=O)N[C@@H]1C2CCC(/C2=C/C2CC2)[C@@H]1C(=O)Nc1ccc(F)c(C(F)(F)F)c1` (stereo partly shown) [compound 215], the concentration for a half-maximal effect (EC50) is 2 nM.

Turning to `COc1ccc(C2=NOC3(CO)CCCC23)cc1C(=O)N[C@H]1[C@@H](C(=O)Nc2ccc(F)c(C(F)(F)F)c2)[C@H]2CC[C@@H]1/C2=C\C1CC1` (single isomer, unassigned) [compound 548], the EC50 turned out to be 32.6 nM.

For `COc1ccc(-c2cc(C(O)C(F)(F)F)ccc2F)cc1C(=O)N[C@@H]1C2CCC(/C2=C/C2CC2)[C@@H]1C(=O)Nc1ccc(F)c(C(F)(F)F)c1` (stereo partly shown) [Example 245], the EC50 amounted to 3 nM.

For `CCCC/C=C1\C2CCC1[C@H](C(=O)Nc1ccc(F)c(C(F)(F)F)c1)[C@@H]2NC(=O)c1cc(C2=NOC(CC(=O)O)C2)ccc1OC` (stereo partly shown) [compound 395], the EC50 was 104 nM.

Turning to `COc1ccc(-c2cc(C(COC(=O)NC3CCC3)C(F)(F)F)ccc2F)cc1C(=O)N[C@H]1[C@@H](C(=O)Nc2ccc(F)c(C(F)(F)F)c2)[C@H]2CC[C@@H]1/C2=C\C1CCCC1` (stereo partly shown) [compound 893], the EC50 was determined as 2.2 nM.

For `COc1ccc(-c2cc(C(C)OC(=O)Nc3ccc(F)cc3)ccc2F)cc1C(=O)N[C@@H]1C2CCC(/C2=C/C2CC2)[C@@H]1C(=O)Nc1ccc(F)c(C(F)(F)F)c1` (stereo partly shown) [compound 226], the EC50 is 3 nM.

Take `COc1cc(F)c(F)cc1C(=O)N[C@@H]1C2CCC(/C2=C/C=C/c2ccccc2)[C@@H]1C(=O)Nc1ccc(F)c(C(F)(F)F)c1` (stereo partly shown) [compound 64]: the EC50 was determined as 520 nM.

On to `CC/C=C1\C2CCC1[C@H](C(=O)Nc1ccc(F)c(C(F)(F)F)c1)[C@@H]2NC(=O)c1cc(-c2cc(C(=O)NC)ccc2F)ccc1OC` (stereo partly shown) [compound 156], for which the EC50 was 11 nM.

In the case of `COc1ccc(C2=NOC(CO)C2)cc1C(=O)N[C@@H]1C2CCC(/C2=C/C2CC2)[C@@H]1C(=O)Nc1ccc(F)c(C(F)(F)F)c1` (stereo partly shown) [compound 382], the concentration for a half-maximal effect (EC50) came to 118 nM.

Regarding `COc1ccc(C2=NOC3CC(C(C)O)CC23)cc1C(=O)N[C@H]1[C@@H](C(=O)Nc2ccc(F)c(C(F)(F)F)c2)[C@H]2CC[C@@H]1/C2=C\C1CC1` (stereo partly shown) [compound 843], the half-maximal effective concentration (EC50) came to 0.9 nM.

Consider `COc1ccc(C#N)cc1C(=O)N[C@H]1[C@@H](C(=O)Nc2ccc(F)c(C(F)(F)F)c2)[C@H]2CC[C@@H]1C2=C(C)C` [compound 99], for which the EC50 worked out at 540 nM.

In the case of `COc1ccc(-c2cc([C@H](NC(=O)C3CCOCC3)C(F)(F)F)ccc2F)cc1C(=O)N[C@H]1[C@@H](C(=O)Nc2ccc(F)c(C(F)(F)F)c2)[C@H]2CC[C@@H]1/C2=C\C1CCCC1` [compound 955], the EC50 was 0.1 nM.
